The nature of data set [1]: in vitro. The conditions noted are these: human.
Data set [2] in a line: in vitro. The conditions noted are these: rat, hepatocytes.
Data set [3] in a line: physchem. The conditions noted are these: octanol/water.
The nature of data set [4]: in vivo. The conditions noted are these: rat, iv.
The nature of data set [5]: Oral bioavailability in rat. The class given is ADME, organism-based. The conditions noted are these: in vivo.
Data set [6] can be described thus: in vivo. The conditions noted are these: rat, iv. The source holds these as a separate data set.
A short description of data set [7]: in vivo. The conditions noted are these: rat, iv. The source holds these as a separate data set.
The nature of data set [8]: Oral bioavailability in dog. The class given is ADME, organism-based, Canis lupus familiaris. The conditions noted are these: in vivo.
The nature of data set [9]: in vivo. The conditions noted are these: dog.
The nature of data set [10]: in vivo. The conditions noted are these: dog. This is another data set of the same source.
For data set [11], the species on record is Rattus norvegicus. The conditions noted are these: in vivo, iv.

SMILES strings stand for the structures.

In the case of `Cc1cc(Cl)ccc1OC1CCN(C[C@H](O)CNC(=O)c2c[nH]c(=O)c3cc(S(C)(=O)=O)ccc23)CC1`, the microsomal CLint in data set [1] (liver microsomes) turned out to be 14 µL/min/mg. Moreover, the intrinsic clearance (hepatocyte CLint) in data set [2] is 7 µL/min/1e6 cells. Moreover, the log distribution coefficient (logD) in data set [3] is 2.4.

Regarding `Cc1cc(Cl)ccc1OC1CCN(C[C@H](O)CNC(=O)c2c[nH]c(=O)c3ccc(S(C)(=O)=O)cc23)CC1`, the microsomal CLint in data set [1] (liver microsomes) is 7 µL/min/mg. For the same compound, the intrinsic metabolic clearance (hepatocyte CLint) in [2] turned out to be 8 µL/min/1e6 cells.

`O=C(NC[C@@H](O)CN1CCC(Oc2ccc(Cl)c(Cl)c2)CC1)c1c[nH]c(=O)c2cc(F)ccc12` gave a Vd in data set [4] of 6.4 L/kg. The logD in data set [3] was found to be 3.2.

In data set [1] (liver microsomes), `Cc1cc(Cl)ccc1OC1CCN(C[C@H](O)CNC(=O)c2c[nH]c(=O)c3cc(F)ccc23)CC1` came in with an intrinsic metabolic clearance (microsomal CLint) of 9 µL/min/mg. The compound further came in with a hepatocyte CLint in [2] of under 3 µL/min/1e6 cells.

For `O=C(NC[C@@H](O)CN1CCC(Oc2ccc(Cl)c(Cl)c2)CC1)c1c[nH]c(=O)c2ccc(F)cc12`, in data set [1] (liver microsomes), the microsomal CLint was found to be 8 µL/min/mg. In data set [2], this compound displayed an intrinsic clearance (hepatocyte CLint) of 5 µL/min/1e6 cells. In addition, the log distribution coefficient (logD) in [3] came out at 3.9.

Regarding `O=C(NC[C@@H](O)CN1CCC(Oc2ccc(Cl)c(Cl)c2)CC1)c1c[nH]c(=O)c2cc(S(=O)(=O)NCCO)ccc12`, in [2], the hepatocyte CLint came to 5 µL/min/1e6 cells.

Compound `NS(=O)(=O)c1ccc2c(C(=O)NC[C@@H](O)CN3CCC(Oc4ccc(Cl)c(Cl)c4)CC3)c[nH]c(=O)c2c1` gave a microsomal CLint in data set [1] (liver microsomes) of under 3 µL/min/mg. Further, in data set [2], the intrinsic metabolic clearance (hepatocyte CLint) is under 3 µL/min/1e6 cells.

Take `Cc1c(Cl)ccc(OC2CCN(C[C@H](O)CNC(=O)c3c[nH]c(=O)c4ccc(S(C)(=O)=O)cc34)CC2)c1Cl`: the intrinsic clearance (microsomal CLint) in data set [1] (liver microsomes) was under 3 µL/min/mg. Also, the hepatocyte CLint in data set [2] was under 3 µL/min/1e6 cells. Moreover, the logD in [3] is 2.8.

In the case of `CNS(=O)(=O)c1ccc2c(C(=O)NC[C@@H](O)CN3CCC(Oc4ccc(Cl)c(Cl)c4)CC3)c[nH]c(=O)c2c1`, in data set [1] (liver microsomes), the intrinsic metabolic clearance (microsomal CLint) is 14 µL/min/mg. The hepatocyte CLint in data set [2] was under 3 µL/min/1e6 cells. The compound also gave a logD in data set [3] of 2.8.

In data set [1] (liver microsomes), `O=C(NC[C@@H](O)CN1CCC(Oc2ccc(Cl)c(Cl)c2)CC1)c1c[nH]c(=O)c2cc(S(=O)(=O)NC3CC3)ccc12` returned a microsomal CLint of 21 µL/min/mg. Moreover, the intrinsic clearance (hepatocyte CLint) in [2] was determined as 6 µL/min/1e6 cells.

In [1] (liver microsomes), `CN(C)S(=O)(=O)c1ccc2c(C(=O)NC[C@@H](O)CN3CCC(Oc4ccc(Cl)c(Cl)c4)CC3)c[nH]c(=O)c2c1` displayed a microsomal CLint of 86 µL/min/mg. Besides, in [2], the intrinsic metabolic clearance (hepatocyte CLint) was 10 µL/min/1e6 cells. In [3], this compound came in with a log distribution coefficient (logD) of 3.1.

Regarding `O=C(NC[C@@H](O)CN1CCC(Oc2ccc(Cl)c(Cl)c2)CC1)c1c[nH]c(=O)c2cc(S(=O)(=O)N3CCC3)ccc12`, in data set [1] (microsomes), the microsomal CLint is under 3 µL/min/mg. In [2], this compound came in with a hepatocyte CLint of 7 µL/min/1e6 cells.

In data set [1] (liver microsomes), `CC1(O)CN(S(=O)(=O)c2ccc3c(C(=O)NC[C@@H](O)CN4CCC(Oc5ccc(Cl)c(Cl)c5)CC4)c[nH]c(=O)c3c2)C1` showed a microsomal CLint of 18 µL/min/mg. In addition, the hepatocyte CLint in data set [2] worked out at 3 µL/min/1e6 cells. Also, the log distribution coefficient (logD) in data set [3] was 2.5.

In [1] (liver microsomes), `O=C(NC[C@@H](O)CN1CCC(Oc2ccc(Cl)c(Cl)c2)CC1)c1c[nH]c(=O)c2c(F)cccc12` had an intrinsic metabolic clearance (microsomal CLint) of 6 µL/min/mg. This compound displayed a hepatocyte CLint in data set [2] of under 3 µL/min/1e6 cells. The compound also came in with a logD in data set [3] of 3.2.

Compound `Cc1cc(Cl)ccc1OC1CCN(C[C@H](O)CNC(=O)c2c[nH]c(=O)c3c(F)cccc23)CC1` came in with an intrinsic clearance (microsomal CLint) in data set [1] (liver microsomes) of 9 µL/min/mg. This compound had an intrinsic metabolic clearance (hepatocyte CLint) in data set [2] of 7 µL/min/1e6 cells. For the same compound, the logD in data set [3] was determined as 3.

In turn, `O=C(NC[C@@H](O)CN1CCC(Oc2ccc(Cl)c(Cl)c2)CC1)c1c[nH]nc1C(F)(F)F` yielded a bioavailability in data set [5] of 36%. This compound gave a half-life in data set [6] of 6 h. In addition, in data set [7], the clearance came out at 1.32 L/h/kg. In data set [1] (liver microsomes), this compound returned a microsomal CLint of under 3 µL/min/mg. In data set [2], this compound returned a hepatocyte CLint of 3 µL/min/1e6 cells.

In data set [1] (microsomes), `Cc1cc(Cl)ccc1OC1CCN(C[C@H](O)CNC(=O)c2c[nH]nc2C(F)(F)F)CC1` yielded a microsomal CLint of under 3 µL/min/mg. Further, in data set [2], the intrinsic clearance (hepatocyte CLint) was 5 µL/min/1e6 cells.

With `Cc1c(Cl)ccc(OC2CCN(C[C@H](O)CNC(=O)c3c[nH]nc3C(F)(F)F)CC2)c1Cl`, the microsomal CLint in data set [1] (liver microsomes) was under 3 µL/min/mg. Besides, the intrinsic metabolic clearance (hepatocyte CLint) in data set [2] turned out to be 6 µL/min/1e6 cells.

As to `O=C(NC[C@@H](O)CN1CCC(Oc2ccc(Cl)c(Cl)c2)CC1)c1c[nH]nc1C1CC1`, the microsomal CLint in data set [1] (liver microsomes) is 9 µL/min/mg. The hepatocyte CLint in data set [2] was under 3 µL/min/1e6 cells.

In the case of `O=C(NC[C@@H](O)CN1CCC(Oc2ccc(Cl)c(Cl)c2)CC1)c1c[nH]c(=O)cc1C(F)(F)F`, the bioavailability is 63% in data set [8] and under 10% in data set [5]. Besides, in data set [1] (liver microsomes), the intrinsic metabolic clearance (microsomal CLint) was under 3 µL/min/mg. In data set [2], the intrinsic metabolic clearance (hepatocyte CLint) was 4 µL/min/1e6 cells.

As for `Cc1cc(Cl)ccc1OC1CCN(C[C@H](O)CNC(=O)c2c[nH]c(=O)cc2C(F)(F)F)CC1`, the microsomal CLint in [1] (liver microsomes) was determined as 3 µL/min/mg. For the same compound, the hepatocyte CLint in data set [2] was under 3 µL/min/1e6 cells.

`Cc1c(Cl)ccc(OC2CCN(C[C@H](O)CNC(=O)c3c[nH]c(=O)cc3C(F)(F)F)CC2)c1Cl`: in [1] (liver microsomes), the intrinsic clearance (microsomal CLint) worked out at 6 µL/min/mg. Besides, the intrinsic clearance (hepatocyte CLint) in data set [2] came to 3 µL/min/1e6 cells.

As to `Cn1cc(C(=O)NC[C@@H](O)CN2CCC(Oc3ccc(Cl)c(Cl)c3)CC2)c(C(F)(F)F)cc1=O`, the bioavailability worked out at 81% in data set [8] and 53% in data set [5]. Further, the values for the half-life in [9] and in data set [6] were 10.8 h and 9.7 h, respectively. Besides, the clearance in data set [10] is 0.48 L/h/kg; in data set [7], 0.54 L/h/kg. The compound further showed a microsomal CLint in data set [1] (microsomes) of 5 µL/min/mg. The compound also yielded a hepatocyte CLint in data set [2] of under 3 µL/min/1e6 cells.

On to `O=C(NC[C@@H](O)CN1CCC(Oc2ccc(Cl)c(Cl)c2)CC1)c1c[nH]c(=O)c2ccccc12`, for which the bioavailability in [8] was 40%; in data set [5], 11%.

Consider `NC(=O)c1c(OC2CCN(C[C@H](O)CNC(=O)c3c[nH]c(=O)c4ccccc34)CC2)ccc(Cl)c1Cl`, for which, in [5], the bioavailability is under 5%. The compound further returned a CL in data set [11] of 0.000516 L/h/kg. Further, in data set [1] (liver microsomes), the microsomal CLint came to 18 µL/min/mg. Moreover, the hepatocyte CLint in [2] stood at 2 µL/min/1e6 cells. In addition, the logD in data set [3] turned out to be 1.5.

In [1] (liver microsomes), `N#Cc1ccc(OC2CCN(C[C@H](O)CNC(=O)c3c[nH]c(=O)c4ccccc34)CC2)cc1` yielded an intrinsic clearance (microsomal CLint) of 18 µL/min/mg. In addition, the hepatocyte CLint in data set [2] is 6 µL/min/1e6 cells.

In turn, `N#Cc1ccc(OC2CCN(C[C@H](O)CNC(=O)c3c[nH]c(=O)c4ccccc34)CC2)cc1Cl` returned an intrinsic clearance (microsomal CLint) in [1] (liver microsomes) of 22 µL/min/mg. In data set [2], this compound registered an intrinsic metabolic clearance (hepatocyte CLint) of 10 µL/min/1e6 cells. Besides, in data set [3], the pH-dependent lipophilicity (logD) is 2.6.

Take `CS(=O)(=O)c1ccc2c(C(=O)NC[C@@H](O)CN3CCC(Oc4ccc(C#N)c(Cl)c4)CC3)c[nH]c(=O)c2c1`: the logD in data set [3] was 1.4.

In [2], `CS(=O)(=O)c1ccc2c(C(=O)NC[C@@H](O)CN3CCC(Oc4ccc(Cl)c(Cl)c4)CC3)c[nH]c(=O)c2c1` registered an intrinsic metabolic clearance (hepatocyte CLint) of 3 µL/min/1e6 cells.

The compound `Cc1c(Cl)ccc(OC2CCN(C[C@H](O)CNC(=O)c3c[nH]c(=O)c4cc(S(C)(=O)=O)ccc34)CC2)c1Cl` showed an intrinsic clearance (microsomal CLint) in data set [1] (liver microsomes) of 13 µL/min/mg. This compound showed a hepatocyte CLint in data set [2] of 12 µL/min/1e6 cells. Further, the pH-dependent lipophilicity (logD) in [3] was 2.8.

Source of the values: ChEMBL document CHEMBL2203219, “Discovery and evolution of phenoxypiperidine hydroxyamide dual CCR3/H₁ antagonists. Part II: optimising in vivo clearance” (Bioorg Med Chem Lett, 2012).
